Assay [1] deals with A549 cells. The assay can be described thus: Measurement of PGE2-increasing activity in A549 cells (IL-1β stimulated, PGE2 quantified in supernatant). It counts as cell-based. The note with it: Homo sapiens, 24 h; concentration of 1 µM of each compound; IL-1β treated A549 cells; read-out: Increased PGE2 production in A549 cells. The procedure, abridged:
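A549 cells grown 24 h in F12K with 10% FBS, then switched to serum-free medium with or without IL-1β and compound (0.1% DMSO final). After 24 h at 37 °C, 5% CO2, supernatant PGE2 quantified by immunoassay.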

Assay [2] addresses T1, human 15-PGDH (Homo sapiens, UniProt P15428).
T1 construct: purchased R&D System 5660-DH
T1 sequence (P15428 1-266): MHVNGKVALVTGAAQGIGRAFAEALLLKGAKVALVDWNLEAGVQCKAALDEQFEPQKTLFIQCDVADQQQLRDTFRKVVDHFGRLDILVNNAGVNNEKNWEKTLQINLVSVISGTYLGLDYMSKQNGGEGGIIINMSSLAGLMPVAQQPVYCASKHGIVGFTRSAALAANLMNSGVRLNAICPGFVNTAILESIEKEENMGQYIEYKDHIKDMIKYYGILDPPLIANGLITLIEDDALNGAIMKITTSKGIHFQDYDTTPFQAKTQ
The assay can be described thus: Evaluation of 15-PGDH inhibitory activity (fluorescence enzyme assay, NAD+/PGE2). It counts as biochemical. The note with it: human 15-PGDH enzyme, fluorescence Vmax. The protocol:
15-PGDH inhibition activity of Example compounds was measured as follows. 6.7 ng of human 15-PGDH (R&D System# 5660-DH) enzyme (10 µL) was added to a black 96 well plate, 60 µL of buffer (50 mM Tris-HCl, pH 7.5, 0.01% Tween 20) was added, and 10 µL of 200 µM β-Nicotinamide adenine dinucleotide sodium salt (Sigma, Cat# N0632-5G) was added. 10 µL of (10x) compound solution in DMSO was added and reacted for 10 minutes at room temperature.

For `N#CCNC(=O)c1ccc(-c2cccc3c(C(=O)N4CCCCC4)cnn23)cc1` [Example 70, N-(cyanomethyl)-4-(3-(piperidine-1-carbonyl)pyrazolo[1,5-a]pyridin-7-yl)benzamide], the fold induction at 1 µM in assay [1] was above 1.5. Moreover, the IC50 (in general, the concentration needed to halve the response being measured) in assay [2] was at most 100 nM.

On to `O=C(c1cnn2c(-c3ccc(-c4nnco4)cc3)cccc12)N1CCCCC1` [Example 350, [7-[4-(1,3,4-oxadiazol-2-yl)phenyl]pyrazolo[1,5-a]pyridin-3-yl]-(1-piperidyl)methanone], for which, in assay [1], the fold induction at 1 µM was above 1.5. Further, the IC50 in assay [2] is at most 100 nM.

As to `O=C1NC(=O)/C(=C/c2cccc(-c3cccc4c(C(=O)N5CCCCC5)cnn34)c2)S1` [Example 119, (Z)-5-(3-(3-(piperidine-1-carbonyl)pyrazolo[1,5-a]pyridin-7-yl)benzylidene)thiazolidine-2,4-dione], in assay [1], the fold induction at 1 µM is above 1.5. The compound further displayed an IC50 in assay [2] of at most 100 nM.

As for `O=C(c1cnn2c(-c3ccc(-c4n[nH]c(=O)o4)nc3)cccc12)N1CCCCC1` [Example 360, 5-[5-[3-(piperidine-1-carbonyl)pyrazolo[1,5-a]pyridin-7-yl]-2-pyridyl]-3H-1,3,4-oxadiazol-2-one], in assay [1], the fold induction at 1 µM was above 1.5. The compound also had an IC50 in assay [2] of at most 100 nM.

Regarding `O=C1NCc2ccc(-c3cccc4c(C(=O)N5CCC6(CCC6)CC5)cnn34)cc21` [Example 392, 6-(3-(7-azaspiro[3.5]nonane-7-carbonyl)pyrazolo[1,5-a]pyridin-7-yl)isoindolin-1-one], in assay [1], the fold induction at 1 µM is above 1.5. Further, the IC50 in assay [2] was at most 100 nM.

Turning to `O=C1NCc2ccc(Nc3cccc4c(C(=O)N5CCCCC5)cnn34)cc21` [Example 212, 6-[[3-(piperidine-1-carbonyl)pyrazolo[1,5-a]pyridin-7-yl]amino]isoindolin-1-one], the fold induction at 1 µM in assay [1] is above 1.5. For the same compound, the IC50 in assay [2] is at most 100 nM.

Consider `O=C(c1cccc(-c2cccc3c(C(=O)N4CCCCC4)cnn23)c1)N1CCOCC1` [Example 26, (7-(3-(morpholine-4-carbonyl)phenyl)pyrazolo[1,5-a]pyridin-3-yl)(piperidin-1-yl)methanone], for which, in assay [1], the fold induction at 1 µM is above 1.5. Also, the IC50 in assay [2] is at most 100 nM.

For the compound `N#CCNC(=O)c1cncc(-c2cccc3c(C(=O)N4CCCCC4)cnn23)c1` [Example 52, N-(cyanomethyl)-5-(3-(piperidine-1-carbonyl)pyrazolo[1,5-a]pyridin-7-yl)nicotinamide], the fold induction at 1 µM in assay [1] is above 1.5. In addition, the IC50 in assay [2] is at most 100 nM.

Consider `O=C(c1cncc(-c2cccc3c(C(=O)N4CCCCC4)cnn23)c1)N1CCOCC1` [Example 39, (7-(5-(morpholine-4-carbonyl)pyridin-3-yl)pyrazolo[1,5-a]pyridin-3-yl)(piperidin-1-yl)methanone], for which, in assay [1], the fold induction at 1 µM is below 1.5. In addition, in assay [2], the IC50 was at most 100 nM.

For the compound `O=C(c1cnn2c(-c3ccc(N4CCC4)nc3)cccc12)N1CCCCC1` [Example 206, (7-(6-(azetidin-1-yl)pyridin-3-yl)pyrazolo[1,5-a]pyridin-3-yl)(piperidin-1-yl)methanone], in assay [1], the fold induction at 1 µM is above 1.5. This compound also returned an IC50 in assay [2] of at most 100 nM.

`Nc1cnn(-c2ccc(-c3cccc4c(C(=O)N5CCCCC5)cnn34)cn2)c1` [Example 344, (7-(6-(4-amino-1H-pyrazol-1-yl)pyridin-3-yl)pyrazolo[1,5-a]pyridin-3-yl)(piperidin-1-yl)methanone]: the fold induction at 1 µM in assay [1] was above 1.5. This compound returned an IC50 in assay [2] of at most 100 nM.

Consider `CNc1nn2c(-c3ccc4c(c3)C(=O)NCC4)cccc2c1C(=O)N1CCCCC1` [Example 160], for which the fold induction at 1 µM in assay [1] was below 1.5. For the same compound, the half-inhibitory concentration (IC50) in assay [2] was above 1000 nM.

In the case of `O=C1CN(C(=O)c2cncc(-c3cccc4c(C(=O)N5CCCCC5)cnn34)c2)CCN1` [Example 203, 4-[5-[3-(piperidine-1-carbonyl)pyrazolo[1,5-a]pyridin-7-yl]pyridine-3-carbonyl]piperazin-2-one], the fold induction at 1 µM in assay [1] is above 1.5. The compound further displayed an IC50 in assay [2] of at most 100 nM.

Consider `Nc1cccc(-c2cccc3c(C(=O)N4CCCCC4)cnn23)c1` [Example 7, (7-(3-aminophenyl)pyrazolo[1,5-a]pyridin-3-yl)(piperidin-1-yl)methanone], for which the fold induction at 1 µM in assay [1] was above 1.5. The same compound returned a half-inhibitory concentration (IC50) in assay [2] of at most 100 nM.

In the case of `N#CCCNC(=O)c1ccc(-c2cccc3c(C(=O)N4CCCCC4)cnn23)cc1` [Example 69, N-(2-cyanoethyl)-4-(3-(piperidine-1-carbonyl)pyrazolo[1,5-a]pyridin-7-yl)benzamide], in assay [1], the fold induction at 1 µM was above 1.5. Besides, the IC50 in assay [2] was at most 100 nM.

`O=C(c1cnn2c(-c3cc(F)cc(-c4noc(=O)[nH]4)c3)cccc12)N1CCCCC1` [Example 299, 3-(3-fluoro-5-(3-(piperidine-1-carbonyl)pyrazolo[1,5-a]pyridin-7-yl)phenyl)-1,2,4-oxadiazol-5(4H)-one]: in assay [1], the fold induction at 1 µM is above 1.5. In addition, the IC50 in assay [2] was at most 100 nM.

`CC1CCCN(C(=O)c2cnn3c(-c4ccc5c(c4)C(=O)NC5)cccc23)C1` (stereo not shown) [Example 387, 6-(3-(3-methylpiperidine-1-carbonyl)pyrazolo[1,5-a]pyridin-7-yl)isoindolin-1-one]: the fold induction at 1 µM in assay [1] was above 1.5. Further, the IC50 in assay [2] was at most 100 nM.

For the compound `O=C(c1cnn2c(-c3cnc(-c4nnc(C(F)F)[s+]4[O-])nc3)cccc12)N1CCCCC1` (stereo not shown) [Example 404, [7-[2-[5-(difluoromethyl)-1-oxo-1,3,4-thiadiazol-2-yl]pyrimidin-5-yl]pyrazolo[1,5-a]pyridin-3-yl]-(1-piperidyl)methanone], in assay [1], the fold induction at 1 µM was above 1.5. This compound came in with an IC50 in assay [2] of at most 100 nM.

In the case of `O=C(Nc1cccnc1)c1ccc(-c2cccc3c(C(=O)N4CCCCC4)cnn23)cn1` [Example 87, 5-(3-(piperidine-1-carbonyl)pyrazolo[1,5-a]pyridin-7-yl)-N-(pyridin-3-yl)picolinamide], in assay [1], the fold induction at 1 µM is below 1.5. This compound registered an IC50 in assay [2] of at most 100 nM.

In the case of `CC(C)N1CCN(C(=O)c2ccc(-c3cccc4c(C(=O)N5CCCCC5)cnn34)cn2)CC1` [Example 84, (4-isopropylpiperazin-1-yl)(5-(3-(piperidine-1-carbonyl)pyrazolo[1,5-a]pyridin-7-yl)pyridin-2-yl)methanone], the fold induction at 1 µM in assay [1] is above 1.5. This compound gave an IC50 in assay [2] of at most 100 nM.

`O=C(c1cnn2c(-c3cncc([N+](=O)[O-])c3)cccc12)N1CCCCC1` [Example 318, (7-(5-nitropyridin-3-yl)pyrazolo[1,5-a]pyridin-3-yl)(piperidin-1-yl)methanone]: in assay [1], the fold induction at 1 µM is above 1.5. The compound also gave an IC50 in assay [2] of at most 100 nM.

For the compound `O=C(c1cnn2c(-c3cnc(-c4n[nH]c(=O)o4)c(F)c3)cccc12)N1CCCCC1` [Example 373, 5-[3-fluoro-5-[3-(piperidine-1-carbonyl)pyrazolo[1,5-a]pyridin-7-yl]-2-pyridyl]-3H-1,3,4-oxadiazol-2-one], the fold induction at 1 µM in assay [1] is above 1.5. The half-inhibitory concentration (IC50) in assay [2] is at most 100 nM.

On to `COCCNC(=O)c1ccc(-c2cccc3c(C(=O)N4CCCCC4)cnn23)cn1` [Example 78, N-(2-methoxyethyl)-5-(3-(piperidine-1-carbonyl)pyrazolo[1,5-a]pyridin-7-yl)picolinamide], for which, in assay [1], the fold induction at 1 µM was above 1.5. Moreover, the IC50 in assay [2] is at most 100 nM.

Values taken from patent EP4653437A2 (Innovo Therapeutics Inc., priority 2023, dated 2024).
